Reference: ChEMBL document CHEMBL1133783, “Diastereoselective synthesis, activity and chiral stability of cyclic alkoxyketone inhibitors of cathepsin K” (Bioorg Med Chem Lett, 2001)
pKi: −log10 of the molar value.

Assays:
[1] = target: T1, Cathepsin K (Homo sapiens, UniProt P43235); assay: Inhibition of cathepsin K
T1 sequence (P43235 whole entry): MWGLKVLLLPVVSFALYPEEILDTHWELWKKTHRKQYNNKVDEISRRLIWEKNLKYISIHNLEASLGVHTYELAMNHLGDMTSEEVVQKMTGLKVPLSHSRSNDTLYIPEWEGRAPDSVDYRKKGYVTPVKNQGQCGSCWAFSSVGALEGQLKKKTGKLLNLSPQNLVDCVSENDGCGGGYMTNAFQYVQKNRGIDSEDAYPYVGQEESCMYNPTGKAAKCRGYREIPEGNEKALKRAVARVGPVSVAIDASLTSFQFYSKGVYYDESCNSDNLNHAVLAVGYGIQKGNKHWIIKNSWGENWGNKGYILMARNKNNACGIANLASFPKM

[2] = target: T1, Cathepsin K; assay: Inhibitory activity was evaluated against cathepsin K

SMILES	pKi [1]	pKi [2]
CC(C)C[C@H](NC(=O)c1ccc2ccccc2n1)C(=O)N[C@H]1COCC1=O	7.82	–
CC(C)C[C@H](NC(=O)c1ccc2ccccc2c1)C(=O)N[C@H]1COCC1=O	7.85	–
CC(C)C[C@@H](NC(=O)c1ccc2ccccc2c1)C(=O)N[C@@H]1COCC1=O	6.33	–
CC(C)C[C@H](NC(=O)c1cc2ccccc2s1)C(=O)N[C@H]1COCC1=O	8.15	–
CC(C)C[C@@H](NC(=O)c1ccc2ccccc2n1)C(=O)N[C@@H]1COCC1=O	6.23	–
CC(C)C[C@@H](NC(=O)c1cc2ccccc2s1)C(=O)N[C@@H]1COCC1=O	7.17	–
COc1ccc(CC(=O)N[C@@H](CC(C)C)C(=O)NC2CCOCC2=O)cc1OC (some centres not stated)	8.00	6.11
CC(C)C[C@H](NC(=O)c1ccc2ccccc2c1)C(=O)NC1CCOCC1=O (single isomer, unassigned; diastereomer 1)	7.49	–
CC(C)C[C@H](NC(=O)c1cc2ccccc2s1)C(=O)NC1CCOCC1=O (single isomer, unassigned; diastereomer 1)	8.10	–
CC(C)C[C@H](NC(=O)c1ccc2ccccc2c1)C(=O)NC1CCOCC1=O (single isomer, unassigned; diastereomer 2)	6.42	–
CC(C)C[C@H](NC(=O)c1cc2ccccc2s1)C(=O)NC1CCOCC1=O (single isomer, unassigned; diastereomer 2)	7.15	–
